How the values were obtained:
[1] = Compound metabolism in liver microsome; type: in vitro ADME, human; settings: compared with AOH1160
Protocol: FIGS. 12A-12E. AOH1996 metabolism and in vivo pharmacokinetics. FIG. 12A: Illustration of AOH1160 degradation by carboxyl esterase-mediated cleavage or by hydroxylation. FIG. 12B: Chromatogram of liver microsome reaction mixtures of AOH1160 and AOH1996. The metabolites shown in FIG. 12A are indicated above their corresponding peaks. FIG. 12C: An aliquot of the liver microsome reaction mixture of AOH1996 was taken after various incubation times in the presence or absence of NADPH as the energy source. AOH1996 concentrations, determined by LC/MS-MS, as a percentage of the input concentration were graphed. FIG. 12D: After oral administration, the plasma concentrations of AOH1996 from three male and three female ES1e/SCID mice at the indicated time points were averaged and graphed ±S.D. The inset contains PK parameters determined by a standard noncompartmental method. FIG. 12E: A similar PK study of AOH1996 was performed in dogs.
Measurement of compound metabolism in liver microsome. AOH1160 analogs were incubated in human liver microsomes in the presence or absence of NADPH at 37° C. An aliquot of the reaction mixture was taken after various incubation times. Compound concentration was determined by liquid chromatography-tandem mass spectrometry (LC-MS/MS) as previously described (Gu et al., 2018).

γH2A.X = γH2A.X Western blot (DNA damage marker); type: cell-based, human
[2] = Oral pharmacokinetic study in dogs; type: in vivo, beagle dogs
Protocol: FIGS. 4A-4H. Pharmacokinetics and anti-tumor growth activity of AOH1996 in vivo. FIG. 4A: After oral administration, the plasma concentrations of AOH1996 from three male and three female ES1^e/SCID mice at the indicated time points were averaged and graphed ±S.D. The inset contains PK parameters determined by a standard noncompartmental method. FIG. 4B: A similar PK study of AOH1996 was performed in dogs. FIGS. 4C-4E: Mice bearing the xenograft tumors of neuroblastoma (FIG. 4C: SK-N-BE(2)c), breast cancer (FIG. 4D: MDA-MB-468), and small-cell lung cancer (FIG. 4E: H82) were given vehicle only (black) or 40 mg/kg of AOH1996 (grey) twice daily immediately after the first measurement. Tumor sizes were measured by a dial caliper each week. […] FIG. 4F: Animal body weight was monitored throughout the studies as an indicator of toxicity. […] FIG. 4G: The levels of phosphor-Chk1 (pChk1) and γH2A.X in SK-N-BE(2)c derived tumor samples were analyzed by IHC. […] The p values determined by the Log-rank (Mantel-Cox) test between combination treatment and each of the control groups are p=0.0003 (Combination vs. NoRx), p=0.005 (Combination vs. AOH1996 alone), and p=0.024 (Combination vs. CPT-11 alone).
Pharmacokinetic (PK) study in animals. […] Following removal of blood cells, plasma concentration of AOH1996 was determined by LC-MS/MS as described (Gu et al., 2018). […]

H82 xenograft tumors = experiment: Xenograft tumor model, small-cell lung cancer; type: in vivo, mice; settings: 40 mg/kg twice daily, oral, vs vehicle
Protocol: (§1) FIGS. 4A-4H. Pharmacokinetics and anti-tumor growth activity of AOH1996 in vivo. FIG. 4A: After oral administration, the plasma concentrations of AOH1996 from three male and three female ES1^e/SCID mice at the indicated time points were averaged and graphed ±S.D. The inset contains PK parameters determined by a standard noncompartmental method. FIG. 4B: A similar PK study of AOH1996 was performed in dogs. FIGS. 4C-4E: Mice bearing the xenograft tumors of neuroblastoma (FIG. 4C: SK-N-BE(2)c), breast cancer (FIG. 4D: MDA-MB-468), and small-cell lung cancer (FIG. 4E: H82) were given vehicle only (black) or 40 mg/kg of AOH1996 (grey) twice daily immediately after the first measurement. Tumor sizes were measured by a dial caliper each week. Tumor volumes (0.4×L×W^2) were averaged and graphed ±S.E. (*, P<0.01). FIG. 4F: Animal body weight was monitored throughout the studies as an indicator of toxicity. […] FIG. 4G: The levels of phosphor-Chk1 (pChk1) and γH2A.X in SK-N-BE(2)c derived tumor samples were analyzed by IHC. […] The p values determined by the Log-rank (Mantel-Cox) test between combination treatment and each of the control groups are p=0.0003 (Combination vs. NoRx), p=0.005 (Combination vs. AOH1996 alone), and p=0.024 (Combination vs. CPT-11 alone).
(§2) In vivo tumor model. […] Tumor size and animal weight were measured weekly. […]

[3] = system: SK-N-AS derived xenograft tumors; experiment: Survival of mice bearing xenograft tumors, AOH1996 with CPT-11; type: in vivo, ES1^e/SCID mice; settings: AOH1996 80 mg/kg oral 8 d; CPT-11 15 mg/kg i.p. 3 d; vs untreated
Protocol: as §1, with “alone). […]” for “alone).”
as §2

[4] = system: nonmalignant cells, including human PBMCs, small airway epithelial cells (hSEAC), and neural crest stem cells (7SM0032); experiment: Toxicity to nonmalignant cells

With `COc1cccc(Oc2ccccc2NC(=O)CNC(=O)c2cccc3ccccc23)c1` [AOH1996, N-(2-((2-(3-methoxyphenoxy)phenyl)amino)-2-oxoethyl)-1-naphthamide] the metabolic stability [1] was “metabolically more stable than AOH1160”, the “γH2A.X levels, cancer vs non-malignant cells” value (γH2A.X; 500 nM, SK-N-BE(2)c) was “caused accumulation of DNA damages as measured by γH2A.X levels in the SK-N-BE(2)c cancer cells, but not in non-malignant cells” and the “γH2A.X levels, wildtype RPB1 vs Y418A mutant cells” value (γH2A.X; SK-N-AS, overnight) was “caused substantially more DNA damages as measured by γH2A.X levels in cells containing wildtype RPB1 allele than in cells homozygous of the Y418A mutant allele”. The “PK parameters in dogs” value [2] was “Comparable PK parameters”, the tumor burden (H82 xenograft tumors) was “significantly reduced tumor burden” and the “increase of median survival” value [3] was roughly 11.5%. The “difference in sensitivity between cancer and normal cells” value [4] was 30 fold and the “concentration up to which not significantly toxic” value ([4]; human PBMCs, hSEAC, 7SM0032) was “at least 10 μM”.

— US20250171404A1, “PCNA INHIBITORS AND USES THEREOF” (CITY OF HOPE, priority 2022, published 2025)
